Settings: Liquid; for thermal diffusivity: Dynamic light scattering; for speed of sound: Brillouin light scattering

CCCCCCCCCC(=O)OCC [ethyl decanoate]
Settings | speed of sound [m/s] | thermal diffusivity [m2/s]
295.34 K, 5000 kPa | – | 8.46e-08
295.57 K, 10000 kPa | – | 8.67e-08
295.72 K, 7000 kPa | – | 8.54e-08
296.25 K, 3000 kPa | – | 8.37e-08
296.31 K, 100 kPa | – | 8.23e-08
300.71 K, 7000 kPa | 1302.7 | –
300.78 K, 100 kPa | 1283.2 | –
300.78 K, 10000 kPa | 1329.5 | –
300.79 K, 3000 kPa | 1290.7 | –
300.81 K, 5000 kPa | 1295.7 | –
310.13 K, 10000 kPa | – | 8.5e-08
310.16 K, 5000 kPa | – | 8.28e-08
310.19 K, 7000 kPa | – | 8.37e-08
310.26 K, 3000 kPa | – | 8.19e-08
310.29 K, 100 kPa | – | 8.05e-08
310.58 K, 10000 kPa | 1301.3 | –
310.85 K, 100 kPa | 1248.4 | –
310.85 K, 5000 kPa | 1265 | –
310.93 K, 7000 kPa | 1271.5 | –
311.01 K, 3000 kPa | 1258.4 | –
320.9 K, 100 kPa | 1213.6 | –
320.91 K, 5000 kPa | 1233.3 | –
320.94 K, 3000 kPa | 1226.4 | –
320.98 K, 7000 kPa | 1241.3 | –
321 K, 10000 kPa | 1269.6 | –
324.97 K, 5000 kPa | – | 8.07e-08
325.08 K, 7000 kPa | – | 8.16e-08
325.11 K, 3000 kPa | – | 7.98e-08
325.16 K, 10000 kPa | – | 8.29e-08
325.23 K, 100 kPa | – | 7.85e-08
330.76 K, 3000 kPa | 1192.9 | –
330.77 K, 7000 kPa | 1210.4 | –
330.79 K, 10000 kPa | 1239.7 | –
330.81 K, 100 kPa | 1178.4 | –
330.87 K, 5000 kPa | 1199.5 | –
339.12 K, 7000 kPa | 1183 | –
339.89 K, 10000 kPa | – | 8.08e-08
340.05 K, 7000 kPa | – | 7.95e-08
340.11 K, 5000 kPa | – | 7.86e-08
340.16 K, 3000 kPa | – | 7.78e-08
340.18 K, 100 kPa | – | 7.64e-08
340.24 K, 100 kPa | 1144.5 | –
340.56 K, 10000 kPa | 1209.4 | –
340.76 K, 5000 kPa | 1166.4 | –
340.79 K, 3000 kPa | 1157.6 | –
350.12 K, 10000 kPa | 1179.1 | –
350.77 K, 3000 kPa | 1124.1 | –
350.89 K, 7000 kPa | 1145.9 | –
350.97 K, 5000 kPa | 1133.3 | –
350.99 K, 100 kPa | 1106.3 | –
355.14 K, 5000 kPa | – | 7.65e-08
355.19 K, 100 kPa | – | 7.44e-08
355.22 K, 7000 kPa | – | 7.74e-08
355.25 K, 10000 kPa | – | 7.86e-08
355.26 K, 3000 kPa | – | 7.57e-08
360.27 K, 10000 kPa | 1145.7 | –
360.32 K, 100 kPa | 1073.2 | –
360.51 K, 5000 kPa | 1102.5 | –
360.55 K, 7000 kPa | 1115.4 | –
360.75 K, 3000 kPa | 1090.9 | –
369.47 K, 10000 kPa | 1115.6 | –
369.75 K, 3000 kPa | – | 7.34e-08
369.77 K, 7000 kPa | – | 7.5e-08
369.78 K, 5000 kPa | – | 7.42e-08
369.78 K, 10000 kPa | – | 7.63e-08
369.85 K, 100 kPa | – | 7.21e-08
371.22 K, 100 kPa | 1035.6 | –
371.22 K, 7000 kPa | 1081.7 | –
371.31 K, 5000 kPa | 1068.1 | –
371.46 K, 3000 kPa | 1054.6 | –
379.56 K, 7000 kPa | 1055.4 | –
379.62 K, 5000 kPa | 1040.4 | –
379.78 K, 100 kPa | 1005.8 | –
379.78 K, 3000 kPa | 1026.4 | –
383.22 K, 10000 kPa | 1069.6 | –
384.3 K, 3000 kPa | – | 7.11e-08
384.31 K, 100 kPa | – | 6.99e-08
384.31 K, 7000 kPa | – | 7.28e-08
384.32 K, 5000 kPa | – | 7.2e-08
384.32 K, 10000 kPa | – | 7.4e-08
389.06 K, 100 kPa | 973.3 | –
389.19 K, 5000 kPa | 1010.9 | –
389.22 K, 7000 kPa | 1025 | –
389.32 K, 3000 kPa | 996.7 | –
392.15 K, 10000 kPa | 1042.5 | –
399.55 K, 10000 kPa | – | 7.23e-08
399.56 K, 3000 kPa | – | 6.95e-08
399.57 K, 7000 kPa | – | 7.11e-08
399.6 K, 100 kPa | – | 6.82e-08
399.6 K, 5000 kPa | – | 7.03e-08
400.76 K, 100 kPa | 933.3 | –
400.79 K, 3000 kPa | 958.4 | –
400.81 K, 7000 kPa | 989.3 | –
400.9 K, 5000 kPa | 973.6 | –
401.26 K, 10000 kPa | 1015 | –
408.81 K, 3000 kPa | 933.4 | –
409.55 K, 5000 kPa | 946.8 | –
410.3 K, 7000 kPa | 960.7 | –
410.85 K, 100 kPa | 900.2 | –
411.61 K, 10000 kPa | 983.4 | –
414.33 K, 10000 kPa | – | 7.01e-08
414.35 K, 3000 kPa | – | 6.73e-08
414.36 K, 7000 kPa | – | 6.89e-08
414.41 K, 5000 kPa | – | 6.81e-08
414.43 K, 100 kPa | – | 6.61e-08
419.6 K, 100 kPa | 871.4 | –
419.67 K, 3000 kPa | 899.1 | –
419.68 K, 5000 kPa | 915 | –

— the NIST ThermoML archive (doi:10.1016/j.fluid.2019.112274)
